Data: publication PMC10146491, “Meroterpenoids from Gongolaria abies-marina against Kinetoplastids: In Vitro Activity and Programmed Cell Death Study” (Pharmaceuticals, 2023)

Columns and labels:
[1] = test system: promastigotes of Leishmania infantum; design: method as in PMID 28126391; settings: read-out: IC50 against promastigotes of Leishmania infantum; cited from earlier work
[2] = test system: intracellular form of L. infantum; design: method as in PMID 28126391; settings: read-out: IC50 against the intracellular form of L. infantum; cited from earlier work
[3] = test system: promastigotes of L. amazonensis; test: Leishmanicidal activity assay (Alamar Blue), promastigotes; type: cell-based, Leishmania amazonensis; settings: for Selectivity index (CC50/IC50), L. amazonensis: CC50 in murine macrophages; for IC50: Leishmania amazonensis, 72 h, Alamar Blue, read-out: Antikinetoplastid activity IC50, L. amazonensis
Protocol: (§1) To carry out the experiments, promastigotes of Leishmania amazonensis (MHOM/BR/77/LTB0016) and L. donovani (MHOM/IN/90/GE1F8R) and epimastigotes of Trypanosoma cruzi (Y strain) were employed. Leishmania species were cultured in Schneider’s medium (Sigma-Aldrich, Madrid, Spain), supplemented with 10% fetal bovine serum (VWR, Biowest, Nuaillé, France) and incubated at 26 °C. RPMI 1640 medium (Gibco, Thermo Fisher, Madrid, Spain) with or without phenol red was also used to culture the parasites at the same temperature. Epimastigotes of T. cruzi were cultured in liver infusion tryptose (LIT) medium supplemented with 10% fetal bovine serum at 26 °C. A cytotoxicity assay was performed using a murine macrophage cell line J774A.1 (ATCC TIB-67), which was maintained in Dulbecco’s modified Eagle’s medium (Gibco, Thermo Fisher, Madrid, Spain) supplemented with 10% of fetal bovine serum at 37 °C in a 5% CO2 atmosphere.
(§2) With the objective of determining the antiparasitic activity of the compounds isolated from G. abies-marina, leishmanicidal activity assays were performed against promastigote stages of L. amazonensis and L. donovani, as well as a trypanocidal activity assay performed against epimastigote stages of T. cruzi. In both parasites, a colorimetric assay was used based on the Alamar Blue reagent (Life Technologies, Madrid, Spain) as previously described by Bethencourt-Estrella et al. (2021).
(§3) In a sterile 96 well-plate, serial dilutions of the extracts, fractions or compounds isolated from G. abies-marina were performed in RPMI 1640 medium without phenol red (in the case of Leishmania spp.) or in LIT (in the case of T. cruzi) with a final volume of 100 µL. Parasites were added to wells to reach a concentration of 5 × 10^5 (Leishmania spp.) or 2.5 × 10^5 (T. cruzi) until a final volume of 200 µL/well. Next, 10% of Alamar Blue® was placed into each well and the plate was incubated for 72 h at 26 °C. Finally, the fluorescence of each well was measured using an EnSpire® Multimode Plate Reader (Perkin Elmer, Madrid, Spain) (544 nm excitation, 590 nm emission) and the concentration that inhibits 50% of the parasite population (IC50) was calculated using a non-linear regression analysis with 95% confidence limits. Miltefosine and benznidazol were used as reference drugs. To analyze the data and calculate the IC50, SigmaPlot 12.0 statistical analysis software (Systat Software Inc, Palo Alto, CA, USA) was used.
(§4) The 50% inhibitory concentration (IC50) and 50% cytotoxic concentration (CC50) values were obtained using Sigma Plot 12.0 statistical analysis software (Systat Software) and calculated using a non-linear regression analysis with 95% confidence limits. Leishmanicidal and trypanocidal activity assays, as well as cytotoxicity assays, were performed three times on different days, and the results were expressed as means ± standard deviations. The analysis of variance was determined using a one-way ANOVA using the GraphPad.PRISM® 9.0 software program (GraphPad Software, San Diego, CA, USA). Differences at p < 0.05 were considered statistically significant.

[4] = test system: promastigotes of L. donovani; test: as above; type: cell-based, Leishmania donovani; settings: for Selectivity index (CC50/IC50), L. donovani: CC50 in murine macrophages; for IC50: Leishmania donovani, 72 h, Alamar Blue, read-out: Antikinetoplastid activity IC50, L. donovani
Protocol: as §1, §2, §3, §4

[5] = test system: epimastigotes of Trypanosoma cruzi; test: Trypanocidal activity assay (Alamar Blue), epimastigotes; type: cell-based; settings: for Selectivity index (CC50/IC50), T. cruzi: CC50 in murine macrophages; for IC50: Trypanosoma cruzi, 72 h, Alamar Blue, read-out: Antikinetoplastid activity IC50, T. cruzi
Protocol: as §1, §2, §3, §4

[6] = Cytotoxicity assay (Alamar Blue); type: cell-based; settings: mouse, J774A.1 murine macrophage cell line, J774A.1, 24 h, read-out: Cytotoxicity CC50, murine macrophages
Protocol: as §1
In a sterile 96-well plate, murine macrophages of the cell line J774A.1 were placed to reach an amount of 10^5 cells per well using RPMI 1640 medium without phenol red. After murine macrophage attachment, 50 µL serial dilutions of the isolated compounds were added in each well until reaching a final volume of 100 µL. Next, 10% of Alamar Blue® was placed into each well and the plate was incubated for 24 h at 37 °C with a 5% CO2 atmosphere. Finally, the plates were analyzed using an EnSpire® Multimode Plate Reader (PerkinElmer, Madrid, Spain), as described in the previous section, and the 50% cytotoxic concentration (CC50) values were calculated.
as §4

[7] = test system: intracellular amastigotes of L. amazonensis; test: In vitro effect against amastigote stage in infected macrophages; type: cell-based, Leishmania amazonensis; settings: for Selectivity index (CC50/IC50), amastigotes of L. amazonensis: CC50 in murine macrophages; for IC50: Leishmania amazonensis, J774.A1, intracellular amastigotes in J774A.1 macrophages, 24 h treatment
Protocol: To determine the in vitro effect against the amastigote stage of L. amazonensis, murine macrophages were infected. In a sterile 96 well-plate, macrophages of the J774A.1 cell line were placed in RPMI 1640 to reach 10^5 macrophages per well. This plate was incubated at 37 °C in a 5% CO2 atmosphere. After one hour of incubation, 100 µL of stationary-phase promastigotes of 7-day-old culture was added in a 10:1 ratio (10^6 parasites per well) and the plates were re-incubated at 37 °C for 24 h to achieve maximum infection. Then, the wells were washed with fresh medium to remove non-phagocytosed promastigotes. The infected macrophages were treated with the compounds isolated for 24 h. Then, the medium was removed carefully to be replaced by 30 μL of 0.05% SDS and the plate was shaken for 30 s. After broke macrophages, 170 μL of Schneider’s medium was added to each well to give a final volume of 200 μL and 20 μL of Alamar Blue® was added to the plate being incubated at 26 °C for 72 h, as described by López-Arencibia et al. (2017). After 72 h of incubation, the plates were analyzed using the same protocol for the promastigote test.

[8] = test system: L. amazonensis promastigotes; test: Transmission electron microscopy, ultrastructural effects; type: cell-based, Leishmania amazonensis; settings: IC90, 24 h
Protocol: (§5) The analysis of the ultrastructural and morphological damage caused by the compounds in the parasites was performed in collaboration with the Facultad de Estudios Superiores Iztacala (FESI), Medicina, UNAM (Mexico). These assays were performed after incubation of the promastigotes of L. amazonensis and epimastigotes of T. cruzi at the IC90 levels of the pure compounds over 24 h. TEM images were obtained using the conventional microscopy technique as previously described by Castelan-Ramirez et al. in a JEOL JEM-1011 transmission electron microscope (JEOL Ltd., Tokyo, Japan).

T. cruzi epimastigotes [9] = test: as above; type: cell-based, Trypanosoma cruzi; settings: IC90, 24 h
Protocol: as §5

[10] = test system: L. amazonensis promastigotes; test: ATP level analysis (Cell Titer-Glo); type: cell-based, Leishmania amazonensis; settings: IC90 of compound, 24 h
Protocol: To study the mechanism of cell death induced in parasites by compounds isolated from Gongolaria abies-marina, a common step was carried out to perform the following five experiments. The promastigotes of Leishmania spp. and epimastigotes of T. cruzi were incubated at the IC90 levels of the compounds (previously calculated) for 24 h at 26 °C. After incubation, the parasites were centrifuged at 3000 rpm for 10 min at 4 °C. The pellets were resuspended following the manufacturer’s instructions for each kit. After the incubation of promastigotes and epimastigotes of the parasites with the IC90 of the compounds, the changes in ATP levels were measured using a Cell Titer-Glo® Luminescent Cell Viability Assay (Promega, WI, USA). The assay was carried out in a white 96-well plate following the manufacturer’s instructions, as previously described by Cartuche et al. (2020). The luminescence was measured using an EnSpire® Multimode Plate Reader (PerkinElmer, Madrid, Spain).

T. cruzi epimastigotes [11] = test: Mitochondrial membrane potential (JC-1 assay); type: cell-based, Trypanosoma cruzi; settings: IC90, 24 h
Protocol: To study the mechanism of cell death induced in parasites by compounds isolated from Gongolaria abies-marina, a common step was carried out to perform the following five experiments. The promastigotes of Leishmania spp. and epimastigotes of T. cruzi were incubated at the IC90 levels of the compounds (previously calculated) for 24 h at 26 °C. After incubation, the parasites were centrifuged at 3000 rpm for 10 min at 4 °C. The pellets were resuspended following the manufacturer’s instructions for each kit. A JC-1 Mitochondrial Membrane Potential Assay Kit® (Cayman Chemical, Ann Arbor, MI, USA) was used to analyze variations in the mitochondrial membrane potential of the parasites after incubation at the IC90 levels of the compounds. After centrifugation, the parasites were resuspended in the same buffer and transferred to a black 96-well plate. JC-1 was added following the manufacturer’s instructions as also described by López-Arencibia et al. (2020). Green and red fluorescence was measured using an EnSpire® Multimode Plate Reader (PerkinElmer, Madrid, Spain).

[12] = listed as 6Z-1′-methoxyamentadione
[13] = listed as 6Z-1′-methoxyamentadione (3)

Compound | Selectivity index (CC50/IC50), L. amazonensis [3] | IC50 [3] | Selectivity index (CC50/IC50), L. donovani [4] | IC50 [4] | Selectivity index (CC50/IC50), T. cruzi [5] | IC50 [5] | CC50 at 24 h [6] | Selectivity index (CC50/IC50), amastigotes of L. amazonensis [7] | IC50 [7] | also measured
3R-tetraprenyltoluquinone |  |  |  |  |  |  |  |  |  | IC50 [1]: 44.9 µM; IC50 [2]: 25 µM
3S-tetraprenyltoluquinone |  |  |  |  |  |  |  |  |  | IC50 [1]: 94.4 µM; IC50 [2]: 88 µM
COc1c(C)cc(O)cc1C/C=C(\C)CC(=O)/C=C(\C)CCC[C@@H](C)C(=O)/C=C/C(C)(C)O [1′-Methoxyamentadione (4), 1′-methoxyamentadione] | 5.41 | ~4.88 µM | 0.21 | 126.5 ± 1.15 µM | 5.36 | 4.93 ± 0.55 µM | 26.4 ± 2.27 µM | 0.96 | 27.6 ± 1.68 µM | Ultrastructural and morphological alterations (TEM) ([8]; listed as 1′-methoxyamentadione): mitochondrial expansion (M), chromatin condensation in the nucleus (*), intense vacuolization (V), the formation of some autophagy vacuoles; Ultrastructural and morphological alterations (TEM) ([8]; listed as 1′-methoxyamentadione (4)): alteration of the flagellar pocket; Ultrastructural and morphological alterations (TEM) ([8]; listed as 4): showed two nuclei; Ultrastructural and morphological alterations (TEM) (T. cruzi epimastigotes [9]): morphological mitochondrial (M) and kinetoplast (K) alterations, chromatin condensation in the nucleus (*), intense vacuolization (V) and the formation of some autophagy vacuoles
COc1c(C)cc(O)cc1C/C=C(\C)CC(=O)/C=C(/C)CCC[C@@H](C)C(=O)/C=C/C(C)(C)O [6Z-1′-Methoxyamentadione (3), 6Z-1′-methoxyamentadione] | 5.49 | ~4.88 µM | 0.27 | 97.9 ± 5.32 µM | 8.19 | 3.26 ± 0.11 µM | 26.8 ± 4.06 µM | 1.66 | 16.2 ± 2.61 µM | ATP levels relative to negative control [10]: greatest effect; Ultrastructural and morphological alterations (TEM) [8, 12]: mitochondrial expansion (M), chromatin condensation in the nucleus (*), intense vacuolization (V), the formation of some autophagy vacuoles; Ultrastructural and morphological alterations (TEM) [8, 13]: alteration of the flagellar pocket; Ultrastructural and morphological alterations (TEM) (T. cruzi epimastigotes [9]; [12]): morphological mitochondrial (M) and kinetoplast (K) alterations, chromatin condensation in the nucleus (*), intense vacuolization (V) and the formation of some autophagy vacuoles; Ultrastructural and morphological alterations (TEM) (T. cruzi epimastigotes [9]; [13]): Morphological alterations of the mitochondria and kinetoplast
O=C(Cn1ccnc1[N+](=O)[O-])NCc1ccccc1 [Benznidazole, benznidazole, reference compound] |  |  |  |  | 57.51 | 6.95 ± 0.5 µM |  |  |  | 
COc1c(C)cc(O)cc1C/C=C(\C)CC(=O)C/C(C)=C/CC[C@@H](C)C(=O)/C=C/C(C)(C)O [Gongolarone B (2), gongolarone B] | 3.79 | 6.45 ± 0.44 µM |  |  | 8.36 | 2.92 ± 0.25 µM | 24.4 ± 3.98 µM | 1.50 | 16.2 ± 1.9 µM | Activity against L. donovani (in words) [4]: lost its activity; ATP levels relative to negative control [10]: decreased; Mitochondrial membrane potential changes (JC-1) (T. cruzi epimastigotes [11]): greatest decrease; Ultrastructural and morphological alterations (TEM) [8]: mitochondrial expansion (M), chromatin condensation in the nucleus (*), intense vacuolization (V), the formation of some autophagy vacuoles; Ultrastructural and morphological alterations (TEM) (T. cruzi epimastigotes [9]; listed as gongolarone B): morphological mitochondrial (M) and kinetoplast (K) alterations, chromatin condensation in the nucleus (*), intense vacuolization (V) and the formation of some autophagy vacuoles; Ultrastructural and morphological alterations (TEM) (T. cruzi epimastigotes [9]; listed as gongolarone B (2)): Morphological alterations of the mitochondria and kinetoplast
CCCCCCCCCCCCCCCCOP(=O)([O-])OCC[N+](C)(C)C [Miltefosine, miltefosine, reference compound] | 11.10 | 6.48 ± 0.1 µM | 21.80 | 3.31 ± 0.11 µM |  |  | 72.2 ± 1.25 µM | 23.16 | 3.12 ± 0.12 µM | 
